Test results taken from patent US8673938B2, “Chemical compounds” (priority 2006, dated 2014).

Tests used:
human 11βHSD1 enzyme [1] = target: T1, human 11βHSD1 enzyme (Homo sapiens (Human), UniProt P28845); experiment: biochemical; details: read-out: % inhibition of human 11-βHSD
human 11βHSD1 enzyme [2] = target: T1, human 11βHSD1 enzyme

T1 sequence (P28845 whole entry): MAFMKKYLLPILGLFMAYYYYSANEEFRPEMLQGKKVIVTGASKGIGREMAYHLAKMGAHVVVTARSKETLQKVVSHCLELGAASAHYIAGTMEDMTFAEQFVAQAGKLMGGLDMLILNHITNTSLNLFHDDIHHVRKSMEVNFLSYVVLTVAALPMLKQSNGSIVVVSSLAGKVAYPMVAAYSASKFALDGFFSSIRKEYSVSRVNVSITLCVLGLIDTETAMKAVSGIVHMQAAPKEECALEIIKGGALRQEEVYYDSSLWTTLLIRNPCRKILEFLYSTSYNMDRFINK

SMILES | inhibition at 30 µM (human 11βHSD1 enzyme [1]) [%] | IC50 (human 11βHSD1 enzyme [2]) [nM]
CCCSc1nc(N2CCC[C@@H](CC(=O)O)C2)ccc1C(=O)NC1CCCCC1 [Example 7, 2-[(3S)-1-[5-(cyclohexylcarbamoyl)-6-propylsulfanyl-pyridin-2-yl]-3-piperidyl]acetic acid] | 87 | 7
CCCSc1nc(N2CCC[C@H](CC(=O)O)C2)ccc1C(=O)NC1CCCCC1 [Example 1, 2-[(3R)-1-[5-(Cyclohexylcarbamoyl)-6-propylsulfanyl-pyridin-2-yl]-3-piperidyl]acetic acid] | 87 | 95
